The source of these data is PubChem BioAssay (NCI).

Each structure is given as a SMILES string.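 Method: 48-hour compound exposure of cells in 96-well plates, five concentrations, linear interpolation of endpoints. GI50 is the concentration that inhibits growth by half. TGI marks complete inhibition of growth.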

In the first experiment the test system is HCT-15 colon. In words: NCI anticancer screen, dose series, 48 h.
With `CCc1cc(Cc2cc(CC)c(NC(=O)C(=O)Cc3ccccn3)c(CC)c2Cl)c(Cl)c(CC)c1NC(=O)C(=O)Cc1ccccn1`, the TGI is over 100 µM.

For the molecule `CC(C)OP(=O)(OC(C)C)C(=NCCN=C(NNc1ccc([N+](=O)[O-])cc1)P(=O)(OC(C)C)OC(C)C)NNc1ccc([N+](=O)[O-])cc1`, the TGI is over 100 µM.

Turning to `COC(OC)C(C)CC(=O)N(C)C` (configuration not stated), the TGI is over 100 µM.

In the case of `C#CC1(O)CCC2C3CCc4cc(Oc5nc(F)nc(-c6c7ccccc7c7sc8ccccc8n67)n5)ccc4C3CC[C@@]21C` (some centres not stated), the TGI was over 100 µM.

For `CC(=O)/C(=C\c1cccc([N+](=O)[O-])c1)C(=O)Nc1ccccc1C`, the TGI was over 100 µM.

For `Clc1ccc(C(c2ccc(Cl)cc2)c2ccccn2)cc1`, the TGI is 38 µM.

Consider `O=c1cc(-c2ccccc2)oc2cc(OCCCOc3ccc4c(=O)cc(-c5ccccc5)oc4c3)ccc12`, for which the TGI is over 100 µM.

Another experiment concerns SK-MEL-28 melanoma. The experiment is described as follows: NCI anticancer screen, dose series, 48 h.
The molecule `CCOC(=O)NC(=O)c1cn(CCCO)c(=O)[nH]c1=O` returned a TGI of over 100 µM.

Turning to `CCN1c2ccccc2C(C(SC)S(=O)(=O)c2ccc(C)cc2)c2c1[nH]c(=O)n(C)c2=O` (configuration not stated), the TGI was over 100 µM.

Turning to `COc1cc(/C=C2\CN(S(=O)(=O)c3ccccc3)C/C(=C\c3cc(CN4CCCC4)c(O)c(OC)c3)C2=O)cc(CN2CCCC2)c1O`, the GI50 was 1.88 µM and the TGI was 3.56 µM.

Consider `COc1ccc([C@H]2[C@@H](F)C(=O)N2c2cc(OC)c(OC)c(OC)c2)cc1F`, for which the GI50 was 15.8 µM and the TGI was over 100 µM.

Turning to `CCCCCCN(CCCCCC)C(=O)Cc1c2n(c3ccccc13)Cc1ccccc1-2`, the TGI was over 100 µM.

Take `CC(=O)[C@@]12O[C@@H]1CC1C3CCC4=CC(O)CCC4(C)C3CCC12C` (some centres not stated): the GI50 was 69.4 µM and the TGI was over 100 µM.

As to `ClCc1cccc(Cn2cnc3ncnc(Cl)c32)c1`, the GI50 is 1.81 µM and the TGI was determined as 3.52 µM.

Regarding `OCC#Cc1ccccc1C#Cc1ccccc1`, the GI50 is 19.2 µM and the TGI worked out at 40.4 µM.

`Cn1c2ccccc2c2cc(-c3ccccc3)c3c(c21)C(=O)c1ccccc1C3=O`: the TGI turned out to be 37.5 µM.

`CN(C)c1ccc(/C=C(\NC(=O)c2ccccc2)c2nc3ncncc3[nH]2)cc1` had a TGI of over 100 µM.

`CC1=CC(O)(c2ccc(-c3ccccc3Cl)cc2)OC1=O` (configuration not stated): the TGI was over 100 µM.

Regarding `O=C(Nc1ccc(Cl)cc1)c1cccc(NC2=C(Cl)C(=O)N(Cc3ccccc3)C2=O)c1`, the GI50 was 25.7 µM and the TGI is over 100 µM.

Consider `CC[C@H](Nc1ncnc2nc[nH]c12)c1oc2ccccc2c(=O)c1-c1cccc(F)c1`, for which the GI50 is 22.6 µM and the TGI was over 100 µM.

`COc1cc(NCc2ccc3oc(=O)c(-c4ccccc4)nc3c2)cc(OC)c1OC` yielded a TGI of over 10 µM.

Consider `CCc1cc(Cc2cc(CC)c(NC(=O)C(=O)Cc3ccccn3)c(CC)c2Cl)c(Cl)c(CC)c1NC(=O)C(=O)Cc1ccccn1`, for which the TGI was over 100 µM.

For `CC(C)OP(=O)(OC(C)C)C(=NCCN=C(NNc1ccc([N+](=O)[O-])cc1)P(=O)(OC(C)C)OC(C)C)NNc1ccc([N+](=O)[O-])cc1`, the TGI was over 100 µM.

Take `COC(OC)C(C)CC(=O)N(C)C` (configuration not stated): the TGI is over 100 µM.

In turn, `O=S1(=O)OCCOS(=O)(=O)C1Br` displayed a TGI of over 100 µM.

Molecule `C#CC1(O)CCC2C3CCc4cc(Oc5nc(F)nc(-c6c7ccccc7c7sc8ccccc8n67)n5)ccc4C3CC[C@@]21C` (some centres not stated) had a TGI of over 100 µM.

As for `CC(=O)/C(=C\c1cccc([N+](=O)[O-])c1)C(=O)Nc1ccccc1C`, the TGI is over 100 µM.

On to `O=c1cc(-c2ccccc2)oc2cc(OCCCOc3ccc4c(=O)cc(-c5ccccc5)oc4c3)ccc12`, for which the TGI was over 100 µM.

The next experiment concerns OVCAR-8 ovarian. The experiment is described as follows: NCI anticancer screen, dose series, 48 h.
In turn, `CCOC(=O)NC(=O)c1cn(CCCO)c(=O)[nH]c1=O` yielded a TGI of over 100 µM.

The molecule `CCN1c2ccccc2C(C(SC)S(=O)(=O)c2ccc(C)cc2)c2c1[nH]c(=O)n(C)c2=O` (configuration not stated) came in with a TGI of over 100 µM.

For `Cc1cc(-c2ccc3nc(C4CCOCC4)n(CCOC(F)(F)F)c3c2)cn(C)c1=O`, the GI50 is 0.952 µM.

Turning to `COc1cc(/C=C2\CN(S(=O)(=O)c3ccccc3)C/C(=C\c3cc(CN4CCCC4)c(O)c(OC)c3)C2=O)cc(CN2CCCC2)c1O`, the GI50 was 1.31 µM and the TGI is over 100 µM.

In turn, `COc1cc(C2c3cc4c(cc3OC(C)(O)C2C)OCO4)cc(OC)c1OC` (configuration not stated) registered a TGI of over 100 µM.

`COc1ccc([C@H]2[C@@H](F)C(=O)N2c2cc(OC)c(OC)c(OC)c2)cc1F`: the GI50 is 0.368 µM and the TGI is over 100 µM.

In the case of `CCCCCCN(CCCCCC)C(=O)Cc1c2n(c3ccccc13)Cc1ccccc1-2`, the TGI was over 100 µM.

On to `CC(=O)[C@@]12O[C@@H]1CC1C3CCC4=CC(O)CCC4(C)C3CCC12C` (some centres not stated), for which the GI50 is 23.3 µM and the TGI stood at 82.3 µM.

With `Brc1ccccc1C1SCc2nc3ccccc3n21` (configuration not stated), the TGI was determined as 57.1 µM.

For `ClCc1cccc(Cn2cnc3ncnc(Cl)c32)c1`, the GI50 was 3.1 µM and the TGI came out at 14.9 µM.

`OCC#Cc1ccccc1C#Cc1ccccc1`: the GI50 is 19.6 µM and the TGI turned out to be 40.6 µM.

The molecule `Cn1c2ccccc2c2cc(-c3ccccc3)c3c(c21)C(=O)c1ccccc1C3=O` had a TGI of 68.1 µM.

In the case of `CN(C)c1ccc(/C=C(\NC(=O)c2ccccc2)c2nc3ncncc3[nH]2)cc1`, the TGI is over 100 µM.

Molecule `CC1=CC(O)(c2ccc(-c3ccccc3Cl)cc2)OC1=O` (configuration not stated) came in with a TGI of over 100 µM.

On to `O=C(Nc1ccc(Cl)cc1)c1cccc(NC2=C(Cl)C(=O)N(Cc3ccccc3)C2=O)c1`, for which the GI50 was 10 µM and the TGI was 21.6 µM.

As for `CC[C@H](Nc1ncnc2nc[nH]c12)c1oc2ccccc2c(=O)c1-c1cccc(F)c1`, the GI50 is 31.9 µM and the TGI was over 100 µM.

The molecule `CCOC(=O)CC(=O)ON(C)C(C)=O` showed a TGI of over 100 µM.

The molecule `COc1cc(NCc2ccc3oc(=O)c(-c4ccccc4)nc3c2)cc(OC)c1OC` had a TGI of over 10 µM.

`CCc1cc(Cc2cc(CC)c(NC(=O)C(=O)Cc3ccccn3)c(CC)c2Cl)c(Cl)c(CC)c1NC(=O)C(=O)Cc1ccccn1` gave a TGI of over 100 µM.

The molecule `CC(C)OP(=O)(OC(C)C)C(=NCCN=C(NNc1ccc([N+](=O)[O-])cc1)P(=O)(OC(C)C)OC(C)C)NNc1ccc([N+](=O)[O-])cc1` showed a TGI of over 100 µM.

As for `COC(OC)C(C)CC(=O)N(C)C` (configuration not stated), the TGI was over 100 µM.

Consider `O=S1(=O)OCCOS(=O)(=O)C1Br`, for which the TGI is over 100 µM.

For `C#CC1(O)CCC2C3CCc4cc(Oc5nc(F)nc(-c6c7ccccc7c7sc8ccccc8n67)n5)ccc4C3CC[C@@]21C` (some centres not stated), the TGI was over 100 µM.

Molecule `Clc1ccc(C(c2ccc(Cl)cc2)c2ccccn2)cc1` came in with a TGI of 33.8 µM.

As for `O=c1cc(-c2ccccc2)oc2cc(OCCCOc3ccc4c(=O)cc(-c5ccccc5)oc4c3)ccc12`, the TGI was over 100 µM.
